Earlier results, collected in patent publication US6576673B2, “Method of deterring woodpeckers” (priority 2001, dated 2003).

System: golden fronted adult woodpeckers
Conditions: painted or applied to a surface of a utility pole; smaller golden fronted adult woodpeckers

For `CC1=CC(=O)CC(C)(C)C1` [Isophorone, 3,5,5-trimethyl-2-cyclohexen-one-1], the repelling woodpeckers is listed as “effective in repelling woodpeckers”.
